Source: PubChem BioAssay AID248 (DTP/NCI, 2004)
Inconclusive results and toxic doses are left out.

Tested on: L1210 leukemia ip in BDF1 mice, survival T/C
Test: NCI In Vivo Anticancer Drug Screen. Data for tumor model L1210 Leukemia (intraperitoneal) in B6D2F1 (BDF1) mice
Settings: endpoint: mean survival time, higher = longer survival
Method in brief: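 Transplanted-tumor mice were given test agent; controls received vehicle only. Survival readings from the two groups were divided (treated over control).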

[1] = dose: 100.0 mg/kg/injection, schedule: Q04DX003 (ip), vehicle: Klucel (hydroxypropylcellulose) (HPC)
[2] = dose: 200.0 mg/kg/injection, schedule: Q04DX003 (ip), vehicle: Klucel (hydroxypropylcellulose) (HPC)
[3] = dose: 400.0 mg/kg/injection, schedule: Q04DX003 (ip), vehicle: Klucel (hydroxypropylcellulose) (HPC)
[4] = dose: 100.0 mg/kg/injection, schedule: Q01DX001 (ip), vehicle: saline
[5] = dose: 400.0 mg/kg/injection, schedule: Q01DX001 (ip), vehicle: saline
[6] = dose: 50.0 mg/kg/injection, schedule: Q01DX009 (ip), vehicle: saline with Tween-80
[7] = dose: 100.0 mg/kg/injection, schedule: Q01DX009 (ip), vehicle: saline with Tween-80
[8] = dose: 200.0 mg/kg/injection, schedule: Q01DX009 (ip), vehicle: saline with Tween-80

For `Cc1cccc(C)c1NC(=O)/C=C\C(=O)O`, the T/C [1] was 98 % of control, the T/C [2] was 91 % of control and the T/C [3] was 94 % of control.
With `c1ccc(NC2CCCCC2)nc1` the T/C (dose: 100.0 mg/kg/injection, schedule: Q04DX003 (ip), vehicle: gum acacia) was 95 % of control, the T/C (dose: 200.0 mg/kg/injection, schedule: Q04DX003 (ip), vehicle: gum acacia) was 98 % of control and the T/C (dose: 400.0 mg/kg/injection, schedule: Q04DX003 (ip), vehicle: gum acacia) was 96 % of control.
For `O=S(=O)(CCCl)c1ccccc1`, the T/C [1] was 103 % of control, the T/C (dose: 100.0 mg/kg/injection, schedule: Q04DX003 (ip), vehicle: saline with Tween-80) was 92 % of control and the T/C [2] was 97 % of control. For the same compound, the T/C (dose: 200.0 mg/kg/injection, schedule: Q04DX003 (ip), vehicle: saline with Tween-80) was 92 % of control, the T/C [3] was 94 % of control and the T/C (dose: 400.0 mg/kg/injection, schedule: Q04DX003 (ip), vehicle: saline with Tween-80) was 97 % of control.
For `COc1ccc2c(c1)NP(=S)(c1ccccc1)N2` (configuration not stated), the T/C (dose: 50.0 mg/kg/injection, schedule: Q01DX001 (ip), vehicle: gum acacia) was 101 % of control, the T/C (dose: 100.0 mg/kg/injection, schedule: Q01DX001 (ip), vehicle: gum acacia) was 91 % of control and the T/C (dose: 100.0 mg/kg/injection, schedule: Q01DX009 (ip), vehicle: gum acacia) was 91 % of control. The T/C (dose: 200.0 mg/kg/injection, schedule: Q01DX001 (ip), vehicle: gum acacia) was 100 % of control, the T/C (dose: 200.0 mg/kg/injection, schedule: Q01DX009 (ip), vehicle: gum acacia) was 91 % of control and the T/C (dose: 400.0 mg/kg/injection, schedule: Q01DX009 (ip), vehicle: gum acacia) was 91 % of control.
`CC(=O)OCC1OC(N2C(=O)/C(=C/c3ccc(N(C)C)cc3)SC2=S)C(OC(C)=O)C(OC(C)=O)C1OC(C)=O` (configuration not stated) was tested, and the T/C (dose: 25.0 mg/kg/injection, schedule: Q01DX005 (ip), vehicle: other) was 100 % of control, the T/C (dose: 50.0 mg/kg/injection, schedule: Q01DX005 (ip), vehicle: other) was 98 % of control and the T/C (dose: 100.0 mg/kg/injection, schedule: Q01DX005 (ip), vehicle: other) was 94 % of control. The T/C (dose: 200.0 mg/kg/injection, schedule: Q01DX005 (ip), vehicle: other) was 95 % of control and the T/C (dose: 400.0 mg/kg/injection, schedule: Q01DX005 (ip), vehicle: other) was 93 % of control.
With `O=C1CN=C(c2ccccn2)c2cc(Cl)ccc2N1` the T/C (dose: 50.0 mg/kg/injection, schedule: Q01DX009 (ip), vehicle: water) was 98 % of control, the T/C (dose: 100.0 mg/kg/injection, schedule: Q01DX009 (ip), vehicle: water) was 97 % of control and the T/C (dose: 200.0 mg/kg/injection, schedule: Q01DX009 (ip), vehicle: water) was 104 % of control. For the same compound, the T/C (dose: 200.0 mg/kg/injection, schedule: Q04DX003 (ip), vehicle: none) was 99 % of control, the T/C (dose: 200.0 mg/kg/injection, schedule: Q04DX003 (ip), vehicle: water) was 100 % of control and the T/C (dose: 267.0 mg/kg/injection, schedule: Q01DX009 (ip), vehicle: saline) was 97 % of control. The T/C (dose: 400.0 mg/kg/injection, schedule: Q01DX009 (ip), vehicle: saline) was 110 % of control, the T/C (dose: 400.0 mg/kg/injection, schedule: Q01DX009 (ip), vehicle: water) was 198 % of control and the T/C (dose: 400.0 mg/kg/injection, schedule: Q04DX003 (ip), vehicle: none) was 101 % of control. The T/C (dose: 400.0 mg/kg/injection, schedule: Q04DX003 (ip), vehicle: water) was 102 % of control, the T/C (dose: 600.0 mg/kg/injection, schedule: Q04DX003 (ip), vehicle: none) was 101 % of control and the T/C (dose: 600.0 mg/kg/injection, schedule: Q04DX003 (ip), vehicle: water) was 102 % of control.
For `CC(C(=O)O)N(C)C(=O)c1cnc2ccccc2n1` (configuration not stated), the T/C (dose: 100.0 mg/kg/injection, schedule: Q01DX001 (ip), vehicle: carboxymethylcellulose (CMC)) was 94 % of control, the T/C (dose: 100.0 mg/kg/injection, schedule: Q04DX003 (ip), vehicle: carboxymethylcellulose (CMC)) was 95 % of control and the T/C (dose: 200.0 mg/kg/injection, schedule: Q01DX001 (ip), vehicle: carboxymethylcellulose (CMC)) was 96 % of control. For the same compound, the T/C (dose: 200.0 mg/kg/injection, schedule: Q04DX003 (ip), vehicle: carboxymethylcellulose (CMC)) was 99 % of control, the T/C (dose: 400.0 mg/kg/injection, schedule: Q01DX001 (ip), vehicle: carboxymethylcellulose (CMC)) was 89 % of control and the T/C (dose: 400.0 mg/kg/injection, schedule: Q04DX003 (ip), vehicle: carboxymethylcellulose (CMC)) was 97 % of control.
In the case of `COC1C(OC(C)=O)CC(=O)OC(C)C/C=C/C=C\C(O)C(C)CC(CC=O)C1OC1OC(C)C(OC2CC(C)(O)C(OC(=O)CC(C)C)C(C)O2)C(N(C)C)C1O` (configuration not stated), the T/C [4] is reported as 96 % of control and the T/C [5] is reported as 90 % of control.
`O=C(COc1ccc(Cl)c(Cl)c1)Nc1ccc[n+](Cc2ccc(Cl)c(Cl)c2)c1` was tested, and the T/C [1] was 90 % of control, the T/C [2] was 97 % of control and the T/C [3] was 104 % of control.
`COc1cc(Nc2ccc(O)c(CN3CCCCC3)c2)c2ncccc2c1` was tested, and the T/C (dose: 75.0 mg/kg/injection, schedule: Q01DX001 (ip), vehicle: other) was 98 % of control, the T/C (dose: 150.0 mg/kg/injection, schedule: Q01DX001 (ip), vehicle: other) was 98 % of control and the T/C (dose: 300.0 mg/kg/injection, schedule: Q01DX001 (ip), vehicle: other) was 91 % of control.
In the case of `CCCCCCCCCCCCCCCC(CCCC)C1CCCCC1` (configuration not stated), the T/C (dose: 100.0 mg/kg/injection, schedule: Q01DX001 (ip), vehicle: saline + alcohol) is reported as 100 % of control, the T/C (dose: 200.0 mg/kg/injection, schedule: Q01DX001 (ip), vehicle: saline + alcohol) is reported as 98 % of control and the T/C (dose: 400.0 mg/kg/injection, schedule: Q01DX001 (ip), vehicle: saline + alcohol) is reported as 96 % of control.
`O=C(O)CSC(SCC(=O)O)c1ccc(Cl)cc1Cl` was tested, and the T/C (dose: 100.0 mg/kg/injection, schedule: Q04DX002 (ip), vehicle: saline) was 94 % of control, the T/C (dose: 200.0 mg/kg/injection, schedule: Q04DX002 (ip), vehicle: saline) was 98 % of control and the T/C (dose: 400.0 mg/kg/injection, schedule: Q04DX002 (ip), vehicle: saline) was 119 % of control.
For `O=C1CC(=O)N(c2ccccc2)C(=O)N1`, the T/C [6] was 99 % of control, the T/C [7] was 99 % of control and the T/C [8] was 99 % of control.
In the case of `CCc1c(Cl)c(C)c(Cl)c(O)c1Cl`, the T/C (dose: 100.0 mg/kg/injection, schedule: Q04DX003 (ip), vehicle: other) is reported as 102 % of control and the T/C (dose: 200.0 mg/kg/injection, schedule: Q04DX003 (ip), vehicle: other) is reported as 93 % of control.
With `CC(OC1CCCCO1)C1CCC2C3CCC4=CC(=O)CCC4(C)C3CCC12C` (configuration not stated) the T/C (dose: 50.0 mg/kg/injection, schedule: Q01DX001 (sc), vehicle: steriod suspending solution) was 103 % of control, the T/C (dose: 100.0 mg/kg/injection, schedule: Q01DX001 (sc), vehicle: steriod suspending solution) was 105 % of control and the T/C (dose: 200.0 mg/kg/injection, schedule: Q01DX001 (sc), vehicle: steriod suspending solution) was 103 % of control. The T/C (dose: 400.0 mg/kg/injection, schedule: Q01DX001 (sc), vehicle: steriod suspending solution) was 111 % of control.
In the case of `CC(C)C(CN)(CCCN1CCOCC1)c1cccc2ccccc12` (configuration not stated), the T/C [7] is reported as 94 % of control and the T/C [8] is reported as 89 % of control.
For `COc1ccc(N=Nc2sc(N)nc2-c2ccc(Cl)cc2)cc1`, the T/C (dose: 12.5 mg/kg/injection, schedule: Q01DX001 (ip), vehicle: saline with Tween-80) was 93 % of control, the T/C (dose: 25.0 mg/kg/injection, schedule: Q01DX001 (ip), vehicle: saline with Tween-80) was 90 % of control and the T/C (dose: 50.0 mg/kg/injection, schedule: Q01DX001 (ip), vehicle: saline with Tween-80) was 101 % of control.
With `CCC1=C/C(=C/c2cc(Cl)ccc2O)C(=O)S1` the T/C (dose: 100.0 mg/kg/injection, schedule: Q01DX001 (ip), vehicle: saline with Tween-80) was 91 % of control, the T/C (dose: 200.0 mg/kg/injection, schedule: Q01DX001 (ip), vehicle: saline with Tween-80) was 87 % of control and the T/C (dose: 400.0 mg/kg/injection, schedule: Q01DX001 (ip), vehicle: saline with Tween-80) was 94 % of control.
`O=S(=O)(O)C(O)c1ccccc1O` (configuration not stated) was tested, and the T/C [4] was 100 % of control, the T/C (dose: 200.0 mg/kg/injection, schedule: Q01DX001 (ip), vehicle: saline) was 103 % of control and the T/C [5] was 102 % of control.
`CCOC(=O)C(CC(=O)c1ccccc1)C(C)=O` (configuration not stated) was tested, and the T/C [6] was 97 % of control, the T/C [7] was 93 % of control and the T/C [8] was 97 % of control.
In the case of `COc1ccc(C(OCC2OC(n3nnc4c(=O)[nH]c(N)nc43)CC2OC(C)=O)(c2ccccc2)c2ccc(OC)cc2)cc1` (configuration not stated), the T/C (dose: 12.5 mg/kg/injection, schedule: Q01DX001 (ip), vehicle: Klucel (hydroxypropylcellulose) (HPC)) is reported as 103 % of control, the T/C (dose: 25.0 mg/kg/injection, schedule: Q01DX001 (ip), vehicle: Klucel (hydroxypropylcellulose) (HPC)) is reported as 93 % of control and the T/C (dose: 50.0 mg/kg/injection, schedule: Q01DX001 (ip), vehicle: Klucel (hydroxypropylcellulose) (HPC)) is reported as 97 % of control. The T/C (dose: 400.0 mg/kg/injection, schedule: Q01DX001 (ip), vehicle: Klucel (hydroxypropylcellulose) (HPC)) was 100 % of control.
